Patent EP0604653A1, “COMPLEX OF COMPOUND HAVING CHALCONE SKELETON” (TAISHO PHARMACEUTICAL CO. LTD, priority 1991, dated 1993)

Experiments:
[1] = tested on: PGE₂ Content in Rat Gastric Mucosa; experiment: PGE₂ content in gastric mucosa after dosing (radioimmunoassay); assay type: in vivo; settings: rats, i.d., dose of SU-740 31.4 mg/kg (Complex 200.0 mg/kg)
Protocol: The test was carried out in accordance with the method described in M. Muramatsu et al., Life Science, Vol. 41, p. 315 (1987). The sample dispersed in a 1 % gum arabic suspension was intraduodenally administered to rats having been deprived of food for 24 hours so as to make a dose of SU -740 become 31.4 mg/kg. After 24 hours from the administration, the gastric mucosa was excised under anesthesia with ether and 2 mℓ of a 20 µM anhydrous solution of Indomethacin was added thereto, followed by homogenization. After allowing to stand for 1 hour, the homogenate was subjected to centrifugation at 3000 rpm for 10 minutes and the supernatant liquor (PG mixture) was lyophilized. The resulting PG mixture was suspended in distilled water, and extracted with methanol by means of a column (vac elute). Then the extract was lyophilized, and subjected to measurement by means of a radioimmunoassay kit.

[2] = Test of absorbability after oral capsule administration (cross-over, Latin square); assay type: in vivo; settings: beagles, dose of SU-740 100 mg/kg, FIG. 5
Protocol: The test was conducted by a cross-over testing method according to a Latin square method using 15 beagles divided into three groups each consisting of 5 test animals. Each sample was put in a capsule and orally given to the animal so as to make a dose of SU-740 become 100 mg/kg.

[3] = tested on: Histamine-Induced Ulceration; experiment: Histamine-induced ulceration, area of lesions; assay type: in vivo; settings: rats, i.d., dose of SU-740 31.4 mg/kg (Complex 200.0 mg/kg); histamine 300 mg/kg i.p. 3 hours later, lesion area 4 hours thereafter
Protocol: The test was carried out in accordance with the method described in M. Muramatsu et al., Arzeneim. Forsch., Vol. 40(I)1, p. 49 (1990). The sample dispersed in a 1 % gum arabic suspension was intraduodenally administrated to rats having been deprived of food for 24 hours so as to make a dose of SU-740 become 31.4 mg/kg. Three hours later, 300 mg/kg of histamine was intraperitoneally administered, and 4 hours thereafter the abdomen was opened, and the area of lesions was measured to evaluate the inhibitory effect on mucosal lesions.

[4] = tested on: Prostaglandin (PG) Metabolic Enzyme; experiment: PG metabolic enzyme activity in excised gastric mucosa after dosing (decomposition of PGE₁ as index); assay type: in vivo; settings: rats, i.d., dose of SU-740 31.4 mg/kg (Complex 200.0 mg/kg)
Protocol: The test was carried out in accordance with the method described in M. Muramatsu et al., Biochemical Pharmacology, Vol. 33(16), p. 2629 (1984). The sample dispersed in a 1 % gum arabic suspension was intraduodenally administered to rats having been deprived of food for 24 hours so as to make a dose of SU-740 become 31.4 mg/kg. Two hours later, the gastric mucosa was excised, and a PG metabolic enzyme was extracted therefrom and analyzed with a spectrophotometer. The effect was examined taking decomposition of PGE₁ as an index.

Gastric Acid Secretion = experiment: Gastric acid secretion in conscious dog with chronic fistula, stimulated by 2-deoxy-D-glucose; assay type: in vivo; settings: p.o., table doses: SU-740 200.0 mg/kg, Complex 200.0 (31.4 as SU-740) mg/kg
Protocol: The test was carried out in accordance with the method described in Gastroenterology, Vol. 85, p. 900 (1983). A dog to which a fistula had been chronically fitted was deprived of food for 20 hours. […] One hour later, 300 mg/kg of 2-deoxy-D-glucose was intravenously injected. Two hours from the injection, the gastric acid secretion was measured.

[5] = tested on: Hydrochloric Acid-Induced Lesion; experiment: Hydrochloric acid-induced gastric mucosal lesion, length of ulcerations; assay type: in vivo, rat; settings: rats, intraduodenal, dose of SU-740 10, 35 or 60 mg/kg, 0.6 N hydrochloric acid 1 hour later; FIG. 6
Protocol: Seventy-two rats divided into 9 groups each consisting of 8 animals were used. A 0.2 mℓ/100 g of the sample dispersed in a 5 % gum arabic suspension was intraduodenally administered to a rat so as to make a dose of SU-740 become 10 mg, 35 mg or 60 mg per kg-body weight. β-Cyclodextrin was similarly administered at a dose corresponding to the SU-740 content in the complex obtained in Example 2. On hour later, 1 mℓ of 0.6 N hydrochloric acid was administered, and 1 hour thereafter the abdomen was opened, and the length of the ulcerations was measured to evaluate the inhibitory effect on mucosal lesions.

CC(C)=CCOc1ccc(C(=O)/C=C/c2ccc(C(C)(C)C)cc2)c(OCC(=O)O)c1 [SU-740, 4-t-butyl-2'-carboxymethoxy-4'-(3-methyl-2-butenyloxy)chalcone]
activity at 31.4 mg/kg ([1]; Rattus norvegicus, intraduodenal, PGE₂ content, read-out: % of Control): 396% | PGE₂ Content (pg/g wet weight) ([1]; gastric mucosa 24 hours after administration): 309.1±57.0 pg/g wet weight | absorbability [2]: scarcely absorbed | Inhibitory Ratio (%) [3]: 66.7% | % of Control ([4]; PG metabolic enzyme activity): 81.3% | PG Metabolic Enzyme Activity (nmol/mg protein/min) ([4]; gastric mucosa excised two hours later): 0.61±0.05 nmol/mg protein/min | Inhibitory Ratio (%) (Gastric Acid Secretion; gastric acid secretion): 20.9% | Gastric Acid Secretion (mEq/1 hr) (Gastric Acid Secretion; 2-deoxy-D-glucose 300 mg/kg i.v. one hour later): 12.1±2.1 mEq/1 hr

OC[C@H]1O[C@@H]2O[C@H]3[C@H](O)[C@@H](O)[C@@H](O[C@H]4[C@H](O)[C@@H](O)[C@@H](O[C@H]5[C@H](O)[C@@H](O)[C@@H](O[C@H]6[C@H](O)[C@@H](O)[C@@H](O[C@H]7[C@H](O)[C@@H](O)[C@@H](O[C@H]8[C@H](O)[C@@H](O)[C@@H](O[C@H]1[C@H](O)[C@H]2O)O[C@@H]8CO)O[C@@H]7CO)O[C@@H]6CO)O[C@@H]5CO)O[C@@H]4CO)O[C@@H]3CO [β-Cyclodextrin, β-cyclodextrin]
inhibitory effect on mucosal lesions [5]: little effect
